Common to all, as to assay type: cell-based
The subject of one assay is IL-17AA. Briefly: IL-17AA production by PHA-stimulated human PBMC (human homodimer IL-17A ELISA). The note with it: 48 hours. How it is done: (§1) Analysis of Proliferation of and Cytokine Production by Human PBMC Stimulated with PHA
(§2) Peripheral blood mononuclear cells (PBMC) from healthy human donors were purified using Accuspin™ System-Histopaque-1077 (Sigma) according to the protocol recommended by the manufacturer. Purified PBMC were then washed twice with phosphate-buffered saline (PBS) and resuspended in RPMI1640 culture medium supplemented with 10% dialyzed heat inactivated fetal calf serum, 1.5 mM L-glutamine, 100 U penicillin/ml, and […] (all from PAN Biotech, Aidenbach, Germany). For stimulation, PBMC were seeded at 1×10^5 cells/well, activated with 2 μg/ml phytohaemagglutinin (PHA, Sigma) and incubated with the test compounds for 48 hours. IL-17A, IL-17F and INF-γ were then determined in the culture supernatant using a Luminex BioPlex system, following the manufacturer's instructions (BioRad, Munich, Germany). For screening, compounds were used at 10, 1, 0.1 and 0.01 μM. To determine the IC50, compounds were titrated semilogarithmically.
(§3) Cytokines were determined in the aforementioned culture supernatant using the following methods: IL-17AA/AF was measured using the Luminex BioPlex system (BioRad, Munich, Germany); IL-17AA using the human homodimer IL-17A ELISA Ready Set Go Kit from eBioscience (Frankfurt, Germany); IL-17FF using the human IL-17F ELI-Pair from Hölzel DiagnosticaGmBH (Köln, Germany); and IFN-γ using the OptEIA human IFN-g ELISA from BD Bioscience (Heidelberg, Germany), all following the manufacturer's instructions.
In general terms: An ELISA detects its analyte on a solid surface through an enzyme-linked reagent.

The test system of a further assay is IL-17FF. Put plainly: IL-17FF production by PHA-stimulated human PBMC (human IL-17F ELI-Pair). The following applies: 48 hours. In outline:
(§4)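 Healthy-donor PBMC (1×10^5 cells/well) were activated with 2 μg/ml PHA and cultured with test compounds for 48 hours; cytokines were then quantified in supernatants by the respective immunoassay. Screening used 10, 1, 0.1 and 0.01 μM; IC50 came from semilogarithmic compound titration.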

Assay [1] concerns PBMC from healthy human donors. Put plainly: T cell proliferation assay (PHA-stimulated human PBMC, BrdU ELISA). The following applies: 48 hours. In outline: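 Proliferation was quantified by BrdU ELISA 48 hours after starting culture of 1×10⁵ human PBMC per well with test compound and 2 μg/ml phytohaemagglutinin. Cells came from healthy donors via Ficoll separation and were kept in RPMI1640 with 10% dialysed heat-inactivated FCS.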
(Uptake of a labelled nucleoside into DNA is a usual measure of proliferation.)

The next assay has as its system IFN-γ. Put plainly: IFN-γ production by PHA-stimulated human PBMC (OptEIA human IFN-g ELISA). The note with it: 48 hours. An outline of the steps: as §4
The next assay deals with IL-17AA/AF. Put plainly: IL-17AA/AF production by PHA-stimulated human PBMC (Luminex BioPlex assay). The note with it: 48 hours, column A, values marked with *, read-out: IC50 (IL-17AA), values marked with * determined by Luminex assay on IL17AA/AF. Here is the method:
as §1, §2, §3

[2] abbreviates: PHA-stimulated human PBMC, column A, values without *, read-out: IC50 (IL-17AA).
[3] abbreviates: PHA-stimulated human PBMC, column B, read-out: IC50 (IL-17FF).
The mark [4] stands for this setting: PHA-stimulated human PBMC, column D, read-out: IC50 (Tcell proliferation).
Setting [5] is: PHA-stimulated human PBMC, column C, read-out: IC50 (IFNγ).
Setting [6] is: human PBMC, 2 μg/ml PHA, read-out: A: IC50 (IL-17AA).
[7] abbreviates: human PBMC, 2 μg/ml PHA, read-out: B: IC50 (IL-17FF).
Where [8] appears, read: human PBMC, 2 μg/ml PHA, read-out: D: IC50 (Tcell proliferation).
Where [9] appears, read: human PBMC, 2 μg/ml PHA, read-out: C: IC50 (IFNγ).

From patent US8354436B2 (4SC Discovery GmbH, priority 2011, dated 2013) come the findings set out here.

pIC50: −log10 of the molar value. Like-named read-outs stand apart in the source and are kept apart here.

`O=C(NC1CCCCC1)c1c(-c2c(F)cccc2Cl)noc1-c1cnn(-c2ccccc2F)c1C(F)(F)F` [Example I-18, 3-(2-chloro-6-fluorophenyl)-N-cyclohexyl-5-(1-(2-fluorophenyl)-5-(trifluoromethyl)-1H-pyrazol-4-yl)isoxazole-4-carboxamide]: the pIC50 was 5.00 to 6.00 in the assay on IL-17AA (setting [2]), 6.00 to 7.00 in the assay with IL-17FF (setting [3]), 5.00 to 6.00 in assay [1] (setting [4]) and 6.00 to 7.00 in the assay with IFN-γ (setting [5]).

Regarding `Fc1ccccc1-n1ncc(-c2onc(-c3c(F)cccc3Cl)c2-c2ccoc2)c1C(F)(F)F` [Example B-9, 3-(2-chloro-6-fluorophenyl)-5-(1-(2-fluorophenyl)-5-(trifluoromethyl)-1H-pyrazol-4-yl)-4-(furan-3-yl)isoxazole], the pIC50 was 6.00 to 7.00 in the assay on IL-17AA (setting [6]), 7.00 to 8.00 in the assay on IL-17FF (setting [7]), 6.00 to 7.00 in assay [1] (setting [8]) and 6.00 to 7.00 in the assay on IFN-γ (setting [9]).

With `Cc1nnc(-c2c(-c3c(F)cccc3Cl)noc2-c2cnn(-c3ccccc3F)c2C(F)(F)F)o1` [Example 11, 2-(3-(2-chloro-6-fluorophenyl)-5-(1-(2-fluorophenyl)-5-(trifluoromethyl)-1H-pyrazol-4-yl)isoxazol-4-yl)-5-methyl-1,3,4-oxadiazole], the pIC50 in the assay with IL-17AA (setting [6]) was 5.00 to 6.00; in the assay with IL-17FF (setting [7]), 6.00 to 7.00; in assay [1] (setting [8]), 6.00 to 7.00; with IFN-γ (setting [9]) it was 7.00 to 8.00.

Regarding `CCOC(=O)c1c(-c2c(F)cccc2Cl)noc1-c1cnn(-c2cccc(NC(C)=O)c2)c1C(F)(F)F` [IB-70, ethyl 5-(1-(3-acetamidophenyl)-5-(trifluoromethyl)-1H-pyrazol-4-yl)-3-(2-chloro-6-fluorophenyl)isoxazole-4-carboxylate], the pIC50 (with IL-17AA (setting [2]); in the assay on IL-17FF (setting [3]); in assay [1] (setting [4]); with IFN-γ (setting [5])) was 7.00 to 8.00 in each case.

`CNC(=O)c1c(-c2c(F)cccc2Cl)noc1-c1cnn(-c2cccc(F)c2)c1C(F)(F)F` [Example I-62, 3-(2-chloro-6-fluorophenyl)-5-(1-(3-fluorophenyl)-5-(trifluoromethyl)-1H-pyrazol-4-yl)-N-methylisoxazole-4-carboxamide]: the pIC50 in the assay on IL-17FF (setting [3]) was 7.00 to 8.00; in the assay with IL-17AA/AF, 6.00 to 7.00; in assay [1] (setting [4]) it was 7.00 to 8.00; with IFN-γ (setting [5]) it was 7.00 to 8.00.

For the compound `COC(=O)c1csc(-c2c(-c3c(F)cccc3Cl)noc2-c2cnn(-c3cccc(F)c3)c2C(F)(F)F)n1` [Example B-2, methyl 2-(3-(2-chloro-6-fluorophenyl)-5-(1-(3-fluorophenyl)-5-(trifluoromethyl)-1H-pyrazol-4-yl)isoxazol-4-yl)thiazole-4-carboxylate], the pIC50 in the assay with IL-17AA (setting [6]) is 6.00 to 7.00; in the assay on IL-17FF (setting [7]), 7.00 to 8.00; in assay [1] (setting [8]) it was 6.00 to 7.00; in the assay on IFN-γ (setting [9]), 7.00 to 8.00.

On to `COC(=O)c1c(-c2c(F)cccc2Cl)noc1-c1cnn(-c2ccccc2)c1C(F)(F)F` [Example I-48, methyl 3-(2-chloro-6-fluorophenyl)-5-(1-phenyl-5-(trifluomethyl)1H-pyrazol-4-yl)isoxazole-4-carboxylate], for which the pIC50 in the assay on IL-17AA (setting [2]) is 6.00 to 7.00; with IL-17FF (setting [3]) it was 7.00 to 8.00; in assay [1] (setting [4]) it was 7.00 to 8.00; in the assay on IFN-γ (setting [5]), 7.00 to 8.00.

As to `CSC(=O)c1c(-c2c(F)cccc2Cl)noc1-c1cnn(-c2cccc(Cl)c2)c1C(F)(F)F` [Example I-126, S-methyl 3-(2-chloro-6-fluorophenyl)-5-(1-(3-chlorophenyl)-5-(trifluoromethyl)-1H-pyrazol-4-yl)isoxazole-4-carbothioate], the pIC50 in the assay on IL-17FF (setting [3]) is over 8.00; in the assay with IL-17AA/AF, 7.00 to 8.00; in assay [1] (setting [4]), over 8.00; in the assay with IFN-γ (setting [5]) it was over 8.00.

With `COC(=O)c1c(-c2c(F)cccc2Cl)noc1-c1cnn(-c2cccc(F)c2)c1C(F)(F)F` [Example I-5, methyl 3-(2-chloro-6-fluorophenyl)-5-(1-(3-fluorophenyl)-5-(trifluoromethyl)-1H-pyrazol-4-yl)isoxazole-4-carboxylate], the pIC50 (with IL-17FF (setting [3]); in the assay on IL-17AA/AF; in assay [1] (setting [4]); with IFN-γ (setting [5])) was over 8.00 throughout.

Turning to `Fc1cccc(-n2ncc(-c3onc(-c4c(F)cccc4Cl)c3-c3ccoc3)c2C(F)(F)F)c1` [Example 13, 3-(2-chloro-6-fluorophenyl)-5-(1-(3-fluorophenyl)-5-(trifluoromethyl)-1H-pyrazol-4-yl)-4-(furan-3-yl)isoxazole], the pIC50 in the assay on IL-17AA (setting [6]) is 5.00 to 6.00; in the assay with IL-17FF (setting [7]) it was 6.00 to 7.00; in assay [1] (setting [8]), 5.00 to 6.00; with IFN-γ (setting [9]), 5.00 to 6.00.

Turning to `CNC(=O)c1c(-c2c(F)cccc2Cl)noc1-c1cnn(-c2ccccc2F)c1C(F)(F)F` [Example I-19, 3-(2-chloro-6-fluorophenyl)-5-(1-(2-fluorophenyl)-5-(trifluoromethyl)-1H-pyrazol-4-yl)-N-methylisoxazole-4-carboxamide], the pIC50 (with IL-17AA (setting [2]); in the assay on IL-17FF (setting [3]); in assay [1] (setting [4]); in the assay with IFN-γ (setting [5])) was 5.00 to 6.00 each time.

With `COC(=O)c1c(-c2c(F)cccc2Cl)noc1-c1cnn(-c2cccc(Cl)c2)c1C(F)(F)F` [Example I-11, methyl 3-(2-chloro-6-fluorophenyl)-5-(1-(3-chlorophenyl)-5-(trifluoromethyl)-1H-pyrazol-4-yl)isoxazole-4-carboxylate], the pIC50 (in the assay with IL-17AA (setting [2]); with IL-17FF (setting [3]); in assay [1] (setting [4]); with IFN-γ (setting [5])) was over 8.00 in each case.

`CNC(=O)c1c(-c2c(F)cccc2Cl)noc1-c1cnn(-c2cccc(Cl)c2)c1C(F)(F)F` [Example I-32, 3-(2-chloro-6-fluorophenyl)-5-(1-(3-chlorophenyl)-5-(trifluoromethyl)-1H-pyrazol-4-yl)-N-methylisoxazole-4-carboxamide]: the pIC50 with IL-17AA (setting [2]) was 6.00 to 7.00; in the assay with IL-17FF (setting [3]), 7.00 to 8.00; in assay [1] (setting [4]), 7.00 to 8.00; with IFN-γ (setting [5]) it was 6.00 to 7.00.

Consider `CSC(=O)c1c(-c2c(F)cccc2Cl)noc1-c1cnn(-c2cccc(F)c2)c1C(F)(F)F` [Example I-128, S-methyl 3-(2-chloro-6-fluorophenyl)-5-(1-(3-fluorophenyl)-5-(trifluoromethyl)-1H-pyrazol-4-yl)isoxazole-4-carbothioate], for which the pIC50 (in the assay with IL-17FF (setting [3]); in the assay on IL-17AA/AF; in assay [1] (setting [4]); in the assay on IFN-γ (setting [5])) was over 8.00 in each case.

For `COC(=O)c1c(-c2c(F)cccc2Cl)noc1-c1cnn(-c2cccc(C#N)c2)c1C(F)(F)F` [Example I-12, methyl 3-(2-chloro-6-fluorophenyl)-5-(1-(3-cyanophenyl)-5-(trifluoromethyl)-1H-pyrazol-4-yl)isoxazole-4-carboxylate], the pIC50 in the assay on IL-17AA (setting [2]) is 6.00 to 7.00; in the assay with IL-17FF (setting [3]), 7.00 to 8.00; in assay [1] (setting [4]), 7.00 to 8.00; with IFN-γ (setting [5]) it was 7.00 to 8.00.
